In US20240115672A1, “TREATMENT OF AN IOP CONDITION” (THE RESEARCH FOUNDATION FOR THE STATE UNIVERSITY OF NEW YORK, priority 2021, published 2024):

Experiments:
[1] = system: MMP-1, MMP-2, MMP-9, MMP-13, PLAT, PAI-1 mRNA; test: qRT-PCR gene expression in sheep TM and ciliary processes after tPA; type: in vivo
Description: Methods. Tissue Collection and Isolation of RNA. After animals were euthanized, eyes were immediately enucleated. Eyes were then opened anterior to the equator using a razor blade. The lens was removed from the anterior part, and the tissue was immersed in RNA stabilizing agent (RNAlater; Ambion, Carlsbad, CA) and placed at […] for transportation to the United States. Upon arrival in the United States, TM and ciliary processes (CP) were dissected on ice in the presence of RNA stabilizing agent as described previously. Dissected tissue was homogenized, and total RNA was extracted using TRIzol reagent (Gibco. Carlsbad, CA). Briefly, the tissue was homogenized in TRIzol, and chloroform was added to separate proteins from RNA. After centrifugation, the RNA-containing supernatant was aspirated. The RNA was precipitated with isopropanol, washed with 75% ethanol, treated with DNase, and column purified using a commercial kit (RNAeasy Mini Kit; Qiagen, Valencia, CA) in accordance with the manufacturer's instructions. RNA concentrations were determined with a spectrophotometer (Nanodrop; Thermo Scientific, Wilmington, DE) and the 260:280-nm absorbance ratio was calculated to determine RNA purity.
Quantitative Real-Time PCR (qRT-PCR) The RNA samples were reverse transcribed with random hexamers to cDNA using a reverse transcription kit (Quantitect; Qiagen) in accordance with the manufacturer's instructions. Quantitative RT-PCR was performed using a commercial kit (SYBR Green RT-PCR Reagents Kit; Applied Biosystems, Carlsbad, CA) in an ABI PRISM 7900HT sequence detector (Applied Biosystems). The sheep endogenous mRNA expression of matrix metalloproteinase-1 (MMP-1), matrix metalloproteinase-2 (MMP-2), matrix metalloproteinase-9 (MMP-9), matrix metalloproteinase-13 (MMP-13). and plasminogen activator tissue (PLAT) in the TM were investigated. Plasminogen activator inhibitor 1 (PA1-1) mRNA expression was measured in both TM and ciliary processes tissues. Relative quantification of gene expression was performed using the standard curve method. Mean threshold cycle (Ct) of the samples was compared among the groups by using the Ct. of 18S as an internal control. The DCt was calculated as the difference in Ct values derived from the target gene and the 18S gene. The DDCt was calculated as DCt of the normalized assayed genes in the treated samples minus DCt of normalized assayed genes in the naive control samples. Relative expression was calculated by the 2exp DD Ct formula.

[2] = system: Mmp-9KO mice; test: Outflow facility in protein treated Mmp-9KO mouse eyes (Example 16); type: in vivo; conditions: Mmp-9KO eyes, intravitreal; p>0.05 ANOVA
Description: Animals: 8- to 12-week-old female mice were used for this study. The animals were housed and bred at the State University of New York (SUNY) Downstate Health Sciences University Division of Comparative Medicine (Brooklyn. NY) under a 12-hour light/12-hour dark cycle and food ad libitum. C57BL/6J mice were obtained from The Jackson Laboratories (Bar Harbor, ME, USA). A PlatKO mouse colony was established from animals (stock No. 002508) obtained from The Jackson Laboratories. These animals are on a C57BL/61 background (www.jax.org/strain/002508). AnMmp-9KO mouse colony was established from animals (stock No. 007084) obtained from The Jackson Laboratories. These animals are on a mixed background but have been bred into the C57BL/6J background for five generations (www.jax.org/strain/007084). […]
Outflow facility determination: Mouse eyes were enucleated immediately after euthanasia. Outflow facility was determined using a constant pressure method, as previously described. […] Flow was constantly measured via a microfluidic flow sensor (0.07-1.5 uL/min, MFS1; Elveflow, Paris, France). […] Any eyes that developed visible leaks during outflow facility determination, or that had pressure-flow correlations with R^2<0.9, were excluded from analysis but were used for RNA quantification.

**Q.** With “tPA: recombinant human tissue plasminogen activator (ACTILYSE; Boehringer Ingelheim), enzymatically active” as the substance, how does the MMP1 expression ([1]; sheep, after tPA) read?
**A.** The MMP1 expression was “up-regulates”.

**Q.** What about the MMP2 expression ([1]; sheep, after tPA) of the same substance?
**A.** Its MMP2 expression is “up-regulates”.

**Q.** What about the MMP9 expression ([1]; sheep, after tPA) of the same substance?
**A.** The MMP9 expression was “up-regulates”.

**Q.** And the MMP13 expression ([1]; sheep, after tPA)?
**A.** Its MMP13 expression is “up-regulates”.

**Q.** And the PAI-1 expression ([1]; trabecular meshwork (TM) and ciliary processes)?
**A.** The PAI-1 expression was “up-regulating”.

**Q.** And the “effect on outflow facility” value [2]?
**A.** The value was “did not increase outflow facility”.
